Results reported in patent publication US20260166211A1, “SYSTEM FOR REMOVING PROTEIN BOUND UREMIC TOXINS DURING HEMODIALYSIS” (University of Washington, priority 2022, published 2026).
Where two headings read alike, the source gives them in different places.

Columns and labels:
human albumin (HA) [1] = molecular target: T1, human albumin (HA) (Homo sapiens, UniProt P02768); assay: SPR adsorption and desorption cycles of HA on functionalized chips with release agents; type: binding; settings: for release of bound HA, SPR results: CB chips, quoted for comparison with column; for SPR angle shift after HA binding: 2 mg/mL HA, functionalized SPR chip; for Release percentage (highest observed; %) NaSCN (2M): release agent NaSCN 2M; for Release percentage (highest observed; %) SDS (35 mM): release agent SDS 35 mM; for Release percentage (highest observed; %) pH 3.6: release by pH 3.6 buffer
Protocol: SPR tests: A temperature controlled NanoSPR8 Model 481 device with a 4-channel flow cell was used and calibration and warm up were performed (2 hr) prior to tests. Two flow cell channels were set as reference in all tests. Basic solution with surfactant (0.1 M NaOH and 1% SDS). acidic solution (0.1 M HCl), and water were used to clean the testing flow cell and tubing system.
A phosphate buffer solution (PB) for SPR studies was prepared by dissolving 21.48 g Na2HPO4 and 3.11 g KH2PO4 in 1 L Milli-Q water for SPR tests. With this buffer a variety of solutions were prepared: NaCl. Na2SO4 and NaSCN was dissolved in the PB to prepare a 2 M solution. Sodium dodecyl sulfate (SDS) solution of 1 wt % (˜35 mM) was prepared by dissolving SDS in PB with aid of bath sonication. Fatty acid solutions were made by pipetting fatty acid into PB and bath sonicating. Linoleic acid solution (LA) included 1.8 μL of LA and 10 mL PB. Fatty acid mix solution (FA mix) was prepared by dispersing 1.8 μL linoleic acid, 1.05 μL oleic acid and 1.08 μL palmitic acid in 10 mL PB. FA mix was an inhomogeneous emulsion due to the limited solubility of fatty acids even with the aid of bath sonication.
[…] The test was carried out in sequence of HA solution, buffer rinse, releasing agent rinse, buffer rinse, in cycles after an initial PB rinse. Three absorption and desorption cycles were performed on each sample for repeatability/stability. The first two cycles used the same release agents of interest and the third cycle used a reference release agent, usually 2 M NaSCN.
Percentage of HA released by different release agents was calculated by dividing the value difference between the […] adsorption SPR peak shift value (‘Adsorb’ in FIG. 7) and post-release signal value (‘Release’ in FIG. 7) using
SPR shift has a strong dependence on solution conditions, thus one can only compare shift signals after a buffer rinse. The initial sensor baseline is set to zero. For the first cycle, after initial HA exposure and buffer rinse a shift of 0.225 is seen corresponding to full HA coverage. After LA exposure and buffer rinse a drop in shift 0.122 is seen instead of the ideal zero if HA is completely released to initial state. The percent released is calculated as (0.225-0.122)/0.225 or ˜46%. […] Even though the total amount of captured protein remains stable, an increasing amount of un-released protein over cycles was observed. Un-releasable protein was expected due to fouling onto unprotected surface of desorbed surface chemistry and practical limitations of buffer rinse times. […] SPR angle shifts and releasability percent as a function of surface functionalization and release chemical are summarized in Table 2.

[2] = molecular target: T2, human albumin indoxyl sulfate complex (HA-IS) (Homo sapiens, UniProt P02768); assay: Adsorption column of CB-functionalized agarose beads with HA-IS, BCA assay of eluent; type: binding; settings: for release of HA bound to the column: release capacity compared to binding capacity
T2 construct: purchased Sigma-Aldrich
Description: Adsorption column (set-up): Devcon 5-minute epoxy in Dev-tube (ITW Polymer Adhesives, USA) was used on all epoxied parts of the column and was allowed to cure for an hour before use. Agarose beads functionalized with Cibacron Blue dye and suspended in 20% ethanol and 0.1 M KH2PO4 (Blue Sepharose Fast Flow 6, GE Healthcare, USA) was obtained and used as-is.
As shown at FIGS. 5A and 5C, glass tube 15a holds agarose beads functionalized with human albumin binding chemistry Cibacron Blue dye, and a barbed inlet/outlet 15b with Luer lock and needle tip is included to flow a solution in and out of glass tube 15a. An interchangeable solution reservoir feed 15c is included. Specifically, glass tube 15a (inner diameter=4 mm) was cut to 4.1 cm (0.52 mL volume). Two sheets of 10.0 μm pore size Teflon membrane filters (Sterlitech Corp., USA) covered the eluent end of the tube and were sealed around the edge with larger diameter elastic tubing (Tygon SE-200, Saint-Gobain Corp., USA) with excess membrane trimmed by knife. The tubing was secured to the tube via glass-compatible glue (Loctite, Henkel AG & Co. KGaA. Germany) and then epoxied to prevent air leakage. The beads in their suspension fluid (0.739 mL total slurry) were pipetted into the tube on top of the membrane seal and drained to form a bed of beads. The other end of the tube was sealed with membrane filters and tubing in a similar manner. Both ends 15b of the bead bed tube were connected to a Luer lock needle assembly that were epoxied to input tubing to prevent fluid leakage. The solution reservoir 15c included a syringe and a Luer lock connection. The column was suspended vertically and syringe pump (Model NE 300, New Era Pump Systems, Inc., USA) set to 4.0 mL/min with 125-250 μL samples collected at time points with lag time experimentally accounted for. Replacing of solutions occurred by switching out the syringe at the base of the Luer lock needle assembly in 15b, ensuring no air bubbles were introduced.
A phosphate buffer (PB) (pH 7.4) for the adsorption column was prepared to mimic the salt composition of human blood serum. 144.3 mg/L CaCl2), 4.26 g/L Na2HPO4, 612.4 mg/L KH2PO4, 85.7 mg/L MgCl2, and 4.68 g/L NaCl were dissolved in HPLC-grade submicron filtered water under stirring and heat, then filtered through a 10.0 μm membrane filter. NaCl was purchased from EMD Chemicals Inc. (Germany): all other chemicals were obtained from Sigma-Aldrich (USA). NaSCN, indoxyl sulfate, and HA solutions were prepared by simple dissolution in PB. 0.58 mM linoleic acid (LA) solution was prepared by pipetting liquid LA into phosphate buffer and sonicating in 10-minute increments until micelles were formed and evenly distributed, indicated by the solution becoming uniformly cloudy. Solutions of micro BCA protein assay were prepared as instructed in a kit obtained from Thermo Scientific (USA).
In cycles, phosphate buffer, HA-IS complex solution, phosphate buffer, and then release agents (linoleic acid or NaSCN) were pumped through the column and the eluent was collected. CB-functionalized beads were expected to adsorb HA-IS and cause the dissociation of IS from the captured HA. Release agents were expected to cause desorption of captured IS-free HA from the adsorption column. These adsorption and desorption behaviors were studied by optical absorbance at 280 nm of the eluent proportional to HA-IS concentration. […] Then both LA and NaSCN release HA from the adsorption column. […] Without wishing to be bound by theory, it is thought that the delayed LA release was caused by LA micelles dissolving at the buffer solution exchange front where concentration drops below the critical micelle concentration (0.1 mM) giving more free-floating molecules of LA capable of release. This release profile may be optimized by multiple shorter buffer/LA cycles.
Bicinchoninic acid (BCA) assay is a protein sensitive quantification method which was used in this example to measure the concentration of HA. […]

human albumin (HA) [3] = molecular target: T1, human albumin (HA); assay: SPR Langmuir isotherm of HA adsorption on ligand-functionalized sensor chips; type: binding; settings: read-out: Kd of HA on SPR sensor modified with different ligands
Protocol: Langmuir Isotherm: HA was dissolved in PB to make solutions with concentration range from 0.1 mg/mL to 2.0 mg/mL for adsorption study. Such HA solutions were pumped through the flow cell in low to high sequence with 20 min. adsorption time for each solution. Between each HA adsorption session, buffer was used to rinse off unbound protein residue for 20 min. PB signal from selected reference channels was used as baseline.
Prior to further analysis, the raw SPR data, absolute maximum absorption angle versus time, was referenced to a baseline reading. A 3-point running average was applied to reduce noise.
The values of SPR signal shift (in degrees) induced by HA solutions of different concentrations were manually identified. For Langmuir adsorption model fitting, the SPR signal shifts were converted to fractional occupancy of adsorption sites (θ) by assuming 0% and 100% site occupancy under 0 mg/mL and 2 mg/mL HA solution treatment, respectively. After plotting the concentration on x-axis and θ on y-axis, the data was fitted to a Langmuir isotherm model with equation
The adsorption constant, Ka, was obtained under the best fitting condition. The desorption constant.

HSA = HSA (Homo sapiens, UniProt P02768); assay: HSA adsorption/desorption on Cibacron blue column with LA solutions of varying concentration; type: binding; settings: LA 8 μl/10 ml, HSA 40 mg/ml, CB beads
Protocol: To test the aforementioned hypotheses, a series of experiments were conducted using LA solutions of varying concentrations and HSA solutions with a concentration of 40 mg/ml. […] The first adsorption-desorption cycle was executed with phosphate buffer serving as a mock release agent to reveal the actual desorption strength of the release agent. The amount of HSA released by LA was quantified by integrating the area beneath the release session curve and subtracting the baseline corresponding to the phosphate buffer rinse. This value represents the fraction of HSA that can be manipulated by the LA solution in a reversible manner. In this context, the adsorption of this fraction of HSA onto the Cibacron blue functionalized beads (CB beads) was considered reversible by LA. Subsequently, the reversible adsorption capacity of CB beads and the albumin release peak height, from FIG. 11A, were plotted against the LA solution concentration, as shown in FIG. 11B.

[4] = cited from earlier work
[5] = with respect to a monolayer protein binding signal strength

T2 sequence (P02768 25-609, one chain of several): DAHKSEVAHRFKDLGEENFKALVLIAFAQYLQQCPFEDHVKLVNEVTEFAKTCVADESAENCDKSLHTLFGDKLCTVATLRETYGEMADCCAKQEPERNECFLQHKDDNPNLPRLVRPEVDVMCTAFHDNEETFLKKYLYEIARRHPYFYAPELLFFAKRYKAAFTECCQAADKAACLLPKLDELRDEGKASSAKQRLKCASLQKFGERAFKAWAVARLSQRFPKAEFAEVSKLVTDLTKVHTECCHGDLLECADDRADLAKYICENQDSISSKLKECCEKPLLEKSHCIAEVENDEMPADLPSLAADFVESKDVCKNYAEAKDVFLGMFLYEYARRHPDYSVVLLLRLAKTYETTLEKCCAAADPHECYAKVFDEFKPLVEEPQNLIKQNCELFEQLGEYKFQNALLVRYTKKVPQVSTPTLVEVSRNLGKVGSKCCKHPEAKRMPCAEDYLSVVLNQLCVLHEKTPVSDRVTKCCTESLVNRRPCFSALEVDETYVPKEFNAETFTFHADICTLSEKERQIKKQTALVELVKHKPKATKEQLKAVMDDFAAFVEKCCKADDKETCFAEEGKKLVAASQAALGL
T1 sequence (P02768 25-609): as the sequence (P02768 25-609, one chain of several) above
HSA, sequence (P02768 25-609): as the sequence (P02768 25-609, one chain of several) above

For `N#C[S-].[Na+]` [NaSCN, reference compound], the “release of bound HA, SPR results” value (human albumin (HA) [1]; SPR) was 65%, the release capacity ([2]; cycle 3, CB-agarose bead column, BCA assay) was 0.292 μmol HA/mL beads and the “release of HA bound to the column” value [2] was no less than 79%.

With `Nc1c(S(=O)(=O)O)cc(Nc2ccc(Nc3nc(Cl)nc(Nc4ccccc4S(=O)(=O)O)n3)c(S(=O)(=O)O)c2)c2c1C(=O)c1ccccc1C2=O` [Cibacron Blue] the “SPR angle shift after HA binding” value (human albumin (HA) [1]; listed as CB) was 0.25 °, the “SPR angle shift after HA binding” value (human albumin (HA) [1]; listed as Cibacron Blue (CB)) was roughly 0.25 ° and the “monolayer averaged SPR signal shift” value (human albumin (HA) [1]; average over chips (CB n=76; capric acid n=50)) was 0.23 °. For the same molecule, the “Release percentage (highest observed; %) Na2SO4 (2M)” value (human albumin (HA) [1]; release agent Na2SO4 2M) was 12.7%, the “Release percentage (highest observed; %) NaCl (2M)” value (human albumin (HA) [1]; release agent NaCl 2M) was 34% and the “Release percentage (highest observed; %) NaSCN (2M)” value (human albumin (HA) [1]) was 78.0%. For the same molecule, the “Release percentage (highest observed; %) SDS (35 mM)” value (human albumin (HA) [1]) was 93.0%, the “Release percentage (highest observed; %) FA mix” value (human albumin (HA) [1]; release agent fatty acid mix) was 49.5% and the “Release percentage (highest observed; %) lbp (0.1 mM)” value (human albumin (HA) [1]; release agent lbp 0.1 mM) was 0%. The “Release percentage (highest observed; %) LA (0.6 mM)” value (human albumin (HA) [1]; release agent linoleic acid 0.6 mM) was 44.1%, the “Release percentage (highest observed; %) pH 3.6” value (human albumin (HA) [1]) was 0% and the “Human serum albumin desorption percent, release agent Fatty Acid Mix” value (human albumin (HA) [1]; [5]) was 37.4 ± 14.2%. For the same molecule, the “Human serum albumin desorption percent, release agent Linoleic Acid” value (human albumin (HA) [1]; [5]) was 31.0 ± 18.9%, the “Human serum albumin desorption percent, release agent NaSCN” value (human albumin (HA) [1]; [5]) was 65.0 ± 12.3% and the Kd (human albumin (HA) [3]) was 3000 nM.

For `N[C@@H](Cc1c[nH]c2ccccc12)C(=O)O` [Tryptophan (NH2 term), Tryptophan], the “SPR angle shift after HA binding” value (human albumin (HA) [1]) was roughly 0.17 °, the “SPR angle shift after HA binding” value (human albumin (HA) [1]; listed as tryptophan of —NH2 terminus) was 0.170 ° and the “Release percentage (highest observed; %) NaSCN (2M)” value (human albumin (HA) [1]) was 15.0%. The “Release percentage (highest observed; %) SDS (35 mM)” value (human albumin (HA) [1]) was 0% and the “Release percentage (highest observed; %) pH 3.6” value (human albumin (HA) [1]) was 0%.

For `Nc1ccc2c(O)c(N=Nc3ccc(N=Nc4ccc(N=Nc5cc(S(=O)(=O)[O-])c6cccc(S(=O)(=O)[O-])c6c5)c5ccccc45)c4ccc(S(=O)(=O)[O-])cc34)c(S(=O)(=O)[O-])cc2c1.[Na+].[Na+].[Na+].[Na+]` [Direct Blue 71], the “SPR angle shift after HA binding” value (human albumin (HA) [1]) was roughly 0.19 °, the “SPR angle shift after HA binding” value (human albumin (HA) [1]; listed as DB71) was 0.19 ° and the “Release percentage (highest observed; %) NaSCN (2M)” value (human albumin (HA) [1]) was 0%. For the same molecule, the “Release percentage (highest observed; %) SDS (35 mM)” value (human albumin (HA) [1]) was 0% and the Kd (human albumin (HA) [3]; HA 0.1-2.0 mg/mL in PB, Langmuir fit, Kd=1/Ka) was 1100 nM.

For `CCCCC/C=C\C/C=C\CCCCCCCC(=O)O` [LA, linoleic acid], the HSA desorption capacity (HSA) was 19.44 mg/ml beads, the “release of bound HA, SPR results” value (human albumin (HA) [1]; SPR) was 31% and the “albumin release capacity on CB surface” value (human albumin (HA) [1]; SPR, CB surface, concentrations of about 0.5 μg/mL) was 44.1%. For the same molecule, the solubility in water [4] was “insoluble”, the release capacity ([2]; CB-agarose bead column, summary b116) was roughly 0.2 μmol HA/mL beads and the release capacity ([2]; CB-agarose bead column, summary b116, per mL beads) was 13.5 mg/mL. It also gave a release amounts ([2]; Cibacron blue agarose beads, plasma compatible linoleic acid as release agent) of 0.23 μmol HA/mL beads, a release capacity ([2]; cycle 1, CB-agarose bead column, BCA assay) of 0.177 μmol HA/mL beads and a release capacity ([2]; cycle 2, CB-agarose bead column, BCA assay) of 0.232 μmol HA/mL beads. For the same molecule, the “release of HA bound to the column” value [2] was “at least 47%” and the “HSA desorption capacity, previous study” value ([2]; value from the previous study) was 15.3 mg/ml beads.

For `CCCCCCCC` [Octane (C8; Alkane), Octane], the “SPR angle shift after HA binding” value (human albumin (HA) [1]) was roughly 0.11 °, the “SPR angle shift after HA binding” value (human albumin (HA) [1]; listed as Octane) was 0.110 ° and the “Release percentage (highest observed; %) NaSCN (2M)” value (human albumin (HA) [1]) was 51.4%. The “Release percentage (highest observed; %) SDS (35 mM)” value (human albumin (HA) [1]) was 29.5%.

In the case of `N[C@@H](Cc1c[nH]c2ccccc12)C(=O)O` [Tryptophan (COOH term), Tryptophan], the “SPR angle shift after HA binding” value (human albumin (HA) [1]) is reported as roughly 0.19 °, the “SPR angle shift after HA binding” value (human albumin (HA) [1]; listed as tryptophan of —COOH terminus) is reported as 0.19 ° and the “Release percentage (highest observed; %) NaSCN (2M)” value (human albumin (HA) [1]) is reported as 0%. For the same molecule, the “Release percentage (highest observed; %) pH 3.6” value (human albumin (HA) [1]) was 0%.
